In PubChem BioAssay AID743305 (Broad Institute, 2014):
Several values for one entry are separate records, joined by “and”; a condition that tells them apart may be missing. Equal entries are not always repeated. Activity calls are given as the source filed them. How the calls were made is not given here.

Test system: Cryptococcus neoformans cell lysis, plate reader
Experiment: Cryptococcus neoformans cell lysis induction, dose response, plate reader, dry powder, set 2 (AID 743305)
Conditions: not given

SMILES	AC50
CCCc1nc2ccccc2n1CCOc1ccccc1	35.7 µM
Cc1cccc(OCCn2cnc3ccccc32)c1	34.1 µM
CC(C)(C)c1ccc(OCCn2cnc3ccccc32)c(Cl)c1	10.1 µM
FC(F)(F)c1cccc(OCCn2cnc3ccccc32)c1	29.7 µM
CC(C)c1ccccc1NCCn1c(=S)[nH]c2ccccc21	> 70 µM (inactive)
COCc1nc2ccccc2n1CCOc1ccc(C(C)(C)C)cc1	28.6 µM
Cc1cccc(OCCn2c(=S)[nH]c3ccc(C(F)(F)F)cc32)c1	> 70 µM (inactive)
Cc1cccc(OCCn2c(=S)[nH]c3ccccc32)c1	8.47 µM
Cc1cc2ncn(CCOc3ccccc3)c2cc1C	14.9 µM
Fc1ccc2c(c1)[nH]c(=S)n2CCOc1ccccc1	12.4 µM and 15.5 µM
Cc1ccc(C(C)C)c(OCCn2c(N)nc3ccccc32)c1	21.9 µM
Cc1ccc(OCCn2cnc3ccccc32)c(C)c1	14.6 µM
Cc1ccc(C(C)C)c(OCCn2c(=S)[nH]c3ccccc32)c1	3.96 µM
CC(C)Oc1ccc(OCCn2c(=S)[nH]c3ccccc32)cc1	12.1 µM
CC(C)Oc1cccc(OCCn2cnc3ccccc32)c1	13.3 µM
NCC(=O)Nc1ccc(-n2nc(C(F)(F)F)cc2-c2ccc3c(ccc4ccccc43)c2)cc1	10.7 µM
CSc1nc2ccccc2n1CCOc1ccc(C)cc1	17.7 µM
Cc1cccc(OCCn2c(=S)[nH]c3cc(F)ccc32)c1	6.33 µM and 6 µM
CC(C)c1ccccc1OCCn1c(=S)[nH]c2ccccc21	4.7 µM
Fc1cccc2c1[nH]c(=S)n2CCOc1ccccc1	13.9 µM
Cc1ccc(C(C)C)c(OCCn2c(NC#N)nc3ccccc32)c1	> 70 µM (inactive)

SMILES	AC50
Cc1cccc(OCCn2c(=S)[nH]c3c(F)cccc32)c1	8.18 µM and 7.2 µM
Cc1cc2ncn(CCOc3ccc4c(c3)CCC4)c2cc1C	3.63 µM
Cc1ccc(OCCn2cnc3ccccc32)c(C(C)C)c1	32.8 µM
Cc1ccc(OCCn2cnc3cc(C)c(C)cc32)cc1	5.54 µM
c1ccc(COc2ccc(OCCn3cnc4ccccc43)cc2)cc1	24.4 µM
S=c1[nH]c2cc(Cl)ccc2n1CCOc1ccccc1	36 µM
CSc1nc2ccccc2n1CCOc1ccccc1	29.5 µM
CCCCc1nc2ccccc2n1CCOc1ccccc1	24.3 µM
Cc1cc2ncn(CCOc3ccccc3C)c2cc1C	8.4 µM
Cc1ccc(C(C)C)c(OCCn2c(CO)nc3ccccc32)c1	> 70 µM (inactive)
CCSc1nc2ccccc2n1CCOc1ccccc1	35 µM
Cc1ccc2c(c1)[nH]c(=S)n2CCOc1ccccc1	7.79 µM
Fc1ccc(OCCn2c(=S)[nH]c3ccccc32)cc1	36.6 µM
Clc1ccc(OCCn2cnc3ccccc32)cc1	29 µM
S=c1[nH]c2cccc(Cl)c2n1CCOc1ccccc1	2.95 µM
CC(C)(C)c1ccc(OCCn2cnc3ccccc32)cc1	11 µM
c1ccc2c(c1)ncn2CCOc1ccc2c(c1)CCC2	3.3 µM
Cc1ccc(C(C)C)c(OCCn2c(=O)[nH]c3ccccc32)c1	> 70 µM (inactive)
CC(C)Oc1ccc(OCCn2cnc3ccccc32)cc1	24.3 µM
Clc1ccc(OCCn2cnc3ccccc32)c(Cl)c1	11.8 µM

Test system: not listed separately
Experiment: as above
Conditions: Cryptococcus neoformans cell lysis, plate reader; at 35 µM (top of the series)

SMILES	activity change, negative = lysis
OCc1nc2ccccc2n1CCOc1ccccc1	-11.6% (inactive)
O=S(=O)(c1ccc(OCCn2cnc3ccccc32)cc1)N1CCOCC1	-16.9% (inactive)
COc1ccccc1OCCn1c(=S)[nH]c2ccccc21	-5.77% (inactive)
CS(=O)(=O)c1ccc(OCCn2cnc3ccccc32)cc1	-6.3% (inactive)
c1ccc(-c2ccc(OCCn3cnc4ccccc43)cc2)cc1	-7.29% (inactive)
COc1ccc(OCCn2cnc3ccccc32)cc1	-13.3% (inactive)
CCc1nc2ccccc2n1CCOc1ccccc1	-12.5% (inactive)
